Data reported in patent US20090311344A1, “Dosing Regimen” (priority 2008, published 2009).
“Also recorded” adds a separate entry of the source.

Key:
[1] = Single dose study in healthy subjects: pharmacokinetics; format: in vivo, human
Experimental: The median tmax of the TPO mimetic peptide compound ranged between 0.09 to 2 hours following single i.v. administration. […] However, the elimination phase appeared consistent across the dose range.

[2] = Single dose study in healthy subjects: safety, tolerability, antibodies; format: in vivo, human
Experimental: See, e.g., U.S. patent application Ser. No. 11/354,065, filed Feb. 14, 2006, the entire contents of which are incorporated herein by reference.
Single i.v. doses of the TPO mimetic peptide compound up to and including 3 μg/kg were well-tolerated in healthy male subjects, with no apparent drug-related effects on adverse events, or cardiovascular or laboratory safety parameters (excluding platelet counts). Antibodies against the TPO mimetic peptide compound were not apparent in any post dose samples.

platelet count = assay: Multiple dose study in cancer subjects receiving platinum-based chemotherapy: platelet counts; format: in vivo, human; conditions: for Maximum Platelet Counts, Geometric Mean: in 10^9/L (unit assumed)
Text: (§1) A total of 7 subjects were excluded from the preliminary statistical analysis of Day 42 platelet count data and 9 subjects were excluded from the preliminary statistical analysis of Day 42 hemoglobin data due to either incorrect randomization, platelet transfusion, not administered the 2nd dose of study medication, or lost to follow-up.

hemoglobin = assay: Multiple dose study in cancer subjects receiving platinum-based chemotherapy: hemoglobin; format: in vivo, human; conditions: Day 42
Text: as §1

[3] = test system: chemotherapy-induced thrombocytopenia and anemia; assay: murine models of chemotherapy-induced thrombocytopenia (CIT) and anemia; format: in vivo
Experimental: The TPO mimetic peptide compound has an estimated EC50 of approximately 5 pM (0.2 ng/mL) in a human TPO (huTPO) receptor assay in vitro and stimulates megakaryocyte lineage specific growth and differentiation in vivo.

In the case of “Methoxypolyethyleneglycol20000-propionyl-L-Isoleucyl-L-Glutamyl-Glycyl-L-Prolyl-L-Threonyl-L-Leucyl-L-Arginyl-L-Glutaminyl-L-2-Naphthylalanyl-L-Leucyl-L-Alanyl-L-Alanyl-L-Arginyl-Sarcosyl-Ne-(methoxypolyethyleneglycol20000-propionyl-L-Isoleucyl-L-Glutamyl-Glycyl-L-Prolyl-L-Threonyl-L-Leucyl-L-Arginyl-L-Glutaminyl-L-2-Naphthylalanyl-L-Leucyl-L-Alanyl-L-Alanyl-L-Arginyl-Sarcosyl-)-Lysinamide [TPO mimetic peptide compound]”, the Cmax dose proportionality [1] is reported as “increased approximately dose proportionally”, the mean terminal half-life ([1]; 3 μg/kg, not well defined) is reported as “approximately 36 hours” and the AUC dose proportionality ([1]; 1.5- to 3-μg/kg dose range) is reported as “no apparent dose proportionality”. The safety and tolerability ([2]; healthy male subjects, single i.v. doses 0.375 to 3 μg/kg) was “safe and generally well tolerated”, the “antibodies against the TPO mimetic peptide compound” value ([2]; healthy subjects, post dose samples) was “not apparent; also recorded: no evidence of antibody formation” and the course of platelets (platelet count; 1.5 μg/kg dose) was “continued to decline up to Day 15”. The “platelets as compared to the placebo subjects” value (platelet count; 1.5 μg/kg dose) was “no apparent difference”, the “day of mean peak platelets” value (platelet count; 3.0 μg/kg dose) was 15 days and the “subjects with platelet increase of more than 3 times the baseline (≧3-fold)” value (platelet count; 1.5 and 2.25 μg/kg dose) was “no subjects; also recorded: none of the subjects”. For the same substance, the “day of peak platelets” value (platelet count; 2.25 and 1.5 μg/kg doses) was 21 days, the “platelet nadir and peak platelet counts relative to placebo” value (platelet count; 2.25 and 3 μg/kg dose) was “approximately 2 fold” and the “day of mean platelet nadir” value (platelet count; 2.25 and 3 μg/kg dose groups) was 10 days. The “platelet count as compared with placebo” value (platelet count; 2.25 and 3 μg/kg doses) was “reduction in chemotherapy-induced decline in platelets and faster recovery relative to placebo; also recorded: increased platelet count”, the “Maximum Platelet Counts, GMR (Active/Placebo)” value (platelet count; Across, 1.5 μg/kg) was 1.0 and the “Minimum Platelet Counts, GMR (Active/Placebo)” value (platelet count; Across, 1.5 μg/kg) was 0.6. The “Minimum Platelet Counts, Geometric Mean” value (platelet count; Across, 1.5 μg/kg) was 33.99, the “Maximum Platelet Counts, Geometric Mean” value (platelet count; Across, 1.5 μg/kg) was 371.53 and the “Maximum Platelet Counts, GMR (Active/Placebo)” value (platelet count; Across, 2.25 μg/kg) was 1.6. The “Minimum Platelet Counts, GMR (Active/Placebo)” value (platelet count; Across, 2.25 μg/kg) was 2.7, the “Minimum Platelet Counts, Geometric Mean” value (platelet count; Across, 2.25 μg/kg) was 163.71 and the “Maximum Platelet Counts, Geometric Mean” value (platelet count; Across, 2.25 μg/kg) was 570.39. The “Maximum Platelet Counts, GMR (Active/Placebo)” value (platelet count; Across, 3.0 μg/kg) was 1.8, the “Minimum Platelet Counts, GMR (Active/Placebo)” value (platelet count; Across, 3.0 μg/kg) was 2.0 and the “Minimum Platelet Counts, Geometric Mean” value (platelet count; Across, 3.0 μg/kg) was 121.61. The “Maximum Platelet Counts, Geometric Mean” value (platelet count; Across, 3.0 μg/kg) was 633.09, the “Maximum Platelet Counts, GMR (Active/Placebo)” value (platelet count; Cycle 1, 1.5 μg/kg) was 1.1 and the “Minimum Platelet Counts, GMR (Active/Placebo)” value (platelet count; Cycle 1, 1.5 μg/kg) was 0.5. For the same substance, the “Minimum Platelet Counts, Geometric Mean” value (platelet count; Cycle 1, 1.5 μg/kg) was 47.01, the “Maximum Platelet Counts, Geometric Mean” value (platelet count; Cycle 1, 1.5 μg/kg) was 331.25 and the “Maximum Platelet Counts, GMR (Active/Placebo)” value (platelet count; Cycle 1, 2.25 μg/kg) was 1.8. For the same substance, the “Minimum Platelet Counts, GMR (Active/Placebo)” value (platelet count; Cycle 1, 2.25 μg/kg) was 2.3, the “Minimum Platelet Counts, Geometric Mean” value (platelet count; Cycle 1, 2.25 μg/kg) was 213.46 and the “Maximum Platelet Counts, Geometric Mean” value (platelet count; Cycle 1, 2.25 μg/kg) was 557.78. The “Maximum Platelet Counts, GMR (Active/Placebo)” value (platelet count; Cycle 1, 3.0 μg/kg) was 2.1, the “Minimum Platelet Counts, GMR (Active/Placebo)” value (platelet count; Cycle 1, 3.0 μg/kg) was 2.0 and the “Minimum Platelet Counts, Geometric Mean” value (platelet count; Cycle 1, 3.0 μg/kg) was 191.17. For the same substance, the “Maximum Platelet Counts, Geometric Mean” value (platelet count; Cycle 1, 3.0 μg/kg) was 641.56, the “Maximum Platelet Counts, GMR (Active/Placebo)” value (platelet count; Cycle 2, 1.5 μg/kg) was 1.0 and the “Minimum Platelet Counts, GMR (Active/Placebo)” value (platelet count; Cycle 2, 1.5 μg/kg) was 1.0. The “Minimum Platelet Counts, Geometric Mean” value (platelet count; Cycle 2, 1.5 μg/kg) was 75.10, the “Maximum Platelet Counts, Geometric Mean” value (platelet count; Cycle 2, 1.5 μg/kg) was 290.55 and the “Maximum Platelet Counts, GMR (Active/Placebo)” value (platelet count; Cycle 2, 2.25 μg/kg) was 1.4. For the same substance, the “Minimum Platelet Counts, GMR (Active/Placebo)” value (platelet count; Cycle 2, 2.25 μg/kg) was 2.2, the “Minimum Platelet Counts, Geometric Mean” value (platelet count; Cycle 2, 2.25 μg/kg) was 175.08 and the “Maximum Platelet Counts, Geometric Mean” value (platelet count; Cycle 2, 2.25 μg/kg) was 397.37. The “Maximum Platelet Counts, GMR (Active/Placebo)” value (platelet count; Cycle 2, 3.0 μg/kg) was 1.4, the “Minimum Platelet Counts, GMR (Active/Placebo)” value (platelet count; Cycle 2, 3.0 μg/kg) was 2.2 and the “Minimum Platelet Counts, Geometric Mean” value (platelet count; Cycle 2, 3.0 μg/kg) was 170.16. The “Maximum Platelet Counts, Geometric Mean” value (platelet count; Cycle 2, 3.0 μg/kg) was 401.20, the “platelet elevations in the second cycle” value (platelet count; all subjects) was “below 3 times the baseline” and the “day of maximum effect on platelet count after administration” value (platelet count; human, in vivo) was 15 days. For the same substance, the “increase in platelet count relative to baseline” value (platelet count; second cycle, 3.0 μg/kg dose) was “approximately 2 fold”, the “Change From Baseline in Hemoglobin, LS Mean (SE)” value (hemoglobin; 1.5 μg/kg) was −1.63 (0.50) and the “Change From Baseline in Hemoglobin, Diff of LS Mean (SE) vs Placebo” value (hemoglobin; 2.25 μg/kg) was 0.57 (0.57). For the same substance, the “Change From Baseline in Hemoglobin, LS Mean (SE)” value (hemoglobin; 2.25 μg/kg) was −1.60 (0.42), the “effect of administration time relative to chemotherapy” value ([3]; 1 hour after chemotherapy compared with dosing after 24 or 96 hours) was “more effective” and the “doses at which the anti-anemic effect was observed” value ([3]; following carboplatin treatment) was ≥ 0.03 mg/kg. The “chemotherapy-induced reduction in Hb, hematocrit and RBC count” value ([3]; mouse, in vivo) was “prevented”, the “fibrinogen-positive microangiopathic lesions in small blood vessels in the brain” value ([3]; mouse, in vivo) was “marked reduction” and the minimum effective dose ([3]; murine models of CIT, single dose, Day 12) was 0.1 mg/kg. The “myeloprotective effect in murine models of CIT” value ([3]; single dose, Day 12) was “reducing the severity and duration of CIT in a dose-dependent manner”.
